The conditions of series [1]: normal temperature and normal pressure; cited from earlier work.
The test system of series [2] is patient with terminal pancreatic cancer. Particulars: person. On the procedure: A patient with terminal pancreatic cancer (person) breathed a mixed gas of hydrogen and air using a gaseous hydrogen inhalation apparatus (MHG-2000α (registered trademark); MiZ Company Limited) over about 4 months. Here, the mixed gas of hydrogen and air was breathed twice a week (duration each time: 1 to 3 hours) over first 2 months and for about 24 hours per day over subsequent 2 months. The hydrogen concentration in MHG-2000α is about 6 to 7% by volume (hydrogen generation rate: about 140 ml/min).

Series [3] relates to patient with terminal systemic metastatic cancer. Particulars: person, 3 times about 2 hours each over about 1 month. On the procedure:
A patient with terminal systemic metastatic cancer (person) breathed a mixed gas of hydrogen and air using a gaseous hydrogen inhalation apparatus (MHG-2000α (registered trademark); MiZ Company Limited, Kanagawa, Japan) total 3 times for about 2 hours each time over about 1 month before death of the patient. The hydrogen concentration in MHG-2000α is about 6 to 7% by volume (hydrogen generation rate: about 140 ml/min).

The test system of series [4] is patient with stage 4 terminal pancreatic cancer. On the procedure:
A patient with stage 4 terminal pancreatic cancer (person) breathed a mixed gas of hydrogen and air using a gaseous hydrogen inhalation apparatus (MHG-2000α (registered trademark); MiZ Company Limited) for about 1 to 3 hours per day over about 8 months. The hydrogen concentration in MHG-2000α is about 6 to 7% by volume (hydrogen generation rate: about 140 ml/min).

The mark [5] stands for this setting: about 6 to 7% by volume hydrogen over about 4 months.
The mark [6] stands for this setting: about 6 to 7% by volume hydrogen.

Where only a bound is given, the exact number is not on record here.

On to `[HH]` [hydrogen gas, molecular hydrogen], for which the solubility in water result in series [1] is on record as “about 1.6 ppm”. In series [2] (setting [5]), the appetite entry is given as “had appetite” and the insomnia result is “improved in insomnia”. Moreover, the cancerous pain result in series [2] (about 6 to 7% by volume hydrogen over about 4 months (twice a week 1 to 3 hours for 2 months, then about 24 hours per day for 2 months), no opioid) is listed as “did not complain about pain or oppression”. In addition, in series [3] (setting [6]), the appetite result is “recovered” and the complexion entry is “improved”. Also, in series [3] (mixed gas of hydrogen and air, about 6 to 7% by volume, no opioid), the cancerous pain entry was “reduced”. Besides, the “blood level of CA19-9 (pancreatic cancer marker)” value in series [4] (about 6 months after the breathing of hydrogen gas, FIG. 1) is given as “sharply decreased”. In series [4] (after the first breathing), the physical fatigue result is given as “hardly complained about physical fatigue”. Further, the “survival after being told life expectancy of 3 months” value in series [4] (person, stage 4, breathing about 1 to 3 hours per day) is reported as at least 9 months. In series [4] (person, about 6 to 7% by volume hydrogen, about 1 to 3 hours per day over about 8 months), the “growth of cancer by CT imaging examination once a month” value was “no tendency of growth of cancer”.

The values are drawn from patent US20200000842A1, “COMPOSITION AND METHOD FOR IMPROVING QOL WITH MOLECULAR HYDROGEN IN CANCER- HAVING SUBJECT” (MiZ Company Limited, priority 2018, published 2020).
